According to US20120129872A1, “FUSED HETEROARYL INHIBITORS OF PRO-MATRIX METALLOPROTEINASE ACTIVATION” (priority 2010, published 2012):
Where a name gives a salt, the structure may show the parent alone.

Key:
[1] = target: T1, proMMP9(20-445;ΔFnII) (SEQ ID NO:6) (Homo sapiens, UniProt P14780, DEL216-390); experiment: ThermoFluor binding assay with proMMP9(20-445;ΔFnII)
T1 construct: start methionine (N); made in house; host or cells: E. coli BL21(DE3) RIL
T1 sequence (P14780 with tags, fused parts or gaps DEL216-390): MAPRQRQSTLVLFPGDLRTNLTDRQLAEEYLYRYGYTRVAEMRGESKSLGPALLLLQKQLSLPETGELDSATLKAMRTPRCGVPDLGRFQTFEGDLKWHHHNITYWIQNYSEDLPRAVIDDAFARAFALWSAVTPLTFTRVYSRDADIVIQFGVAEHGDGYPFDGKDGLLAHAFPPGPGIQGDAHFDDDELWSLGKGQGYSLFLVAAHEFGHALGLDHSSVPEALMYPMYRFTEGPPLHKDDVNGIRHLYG
Experimental: (§1) The ThermoFluor® (TF) assay is a 384-well plate-based binding assay that measures thermal stability of proteins (Biomol Screen 2001, 6, 429-40; Biochemistry 2005, 44, 5258-66). The experiments were carried out using instruments available from Johnson & Johnson Pharmaceutical Research & Development, LLC. TF dye used in all experiments was […] (1,8-ANS) (Invitrogen: A-47).
(§2) Compounds were arranged in a pre-dispensed plate (Greiner Bio-one: 781280), wherein compounds were serially diluted in 100% DMSO across 11 columns within a series. Columns 12 and 24 were used as DMSO reference and contained no compound. For multiple compound concentration-response experiments, the compound aliquots ([…]) were robotically predispensed directly into black 384-well polypropylene PCR microplates (Abgene: TF-0384/k) using a Cartesian Hummingbird liquid handler (DigiLab, Holliston, Mass.). Following compound dispense, protein and dye solutions were added to achieve the final assay volume of 3 μL. The assay solutions were overlayed with 1 μL of silicone oil (Fluka, type DC 200: 85411) to prevent evaporation.
(§3) Assay plates were robotically loaded onto a thermostatically controlled PCR-type thermal block and then heated from 40 to 90° C. at a ramp-rate of 1° C./min for all experiments. Fluorescence was measured by continuous illumination with UV light (Hamamatsu LC6) supplied via fiber optics and filtered through a band-pass filter (380-400 nm; >60D cutoff). Fluorescence emission of the entire 384-well plate was detected by measuring light intensity using a CCD camera (Sensys, Roper Scientific) filtered to detect 500±25 nm, resulting in simultaneous and independent readings of all 384 wells. A single image with 20-sec exposure time was collected at each temperature, and the sum of the pixel intensity in a given area of the assay plate was recorded vs temperature and fit to standard equations to yield the Tm (J Biomol Screen 2001, 6, 429-40).
(§4) Thermodynamic parameters necessary for fitting compound binding for each proMMP were estimated by differential scanning calorimetry (DSC) and from ThermoFluor® data. The heat capacity of unfolding for each protein was estimated from the molecular weight and from ThermoFluor® dosing data.
ThermoFluor® with proMMP9(20-445;ΔFnII (SEQ ID NO:6)
The protein sample preparations included a desalting buffer exchange step via a PD-10 gravity column (GE Healthcare). The desalting buffer exchange was performed prior to diluting the protein to the final assay concentration of 2.8 μM proMMP9(20-445;ΔFnII) (SEQ ID NO:6). The concentration of proMMP9(20-445;ΔFnII) (SEQ ID NO:6) was determined spectrophotometrically based on a calculated extinction coefficient of ε280=39880 M^−1 cm^−1, a calculated molecular weight of 28.2 kDa, and calculated pI of 5.5. ThermoFluor® reference conditions were define as follows: 80 μg/mL (2.8 μM) proMMP9(20-445;ΔFnII) (SEQ ID NO:6), 50 μM 1,8-ANS, pH 7.0 Buffer (50 mM HEPES pH 7.0, 100 mM NaCl, 0.001% Tween-20, 2.5 mM MgCl2, 300 μM CaCl2). The thermodynamic parameters for proMMP9(20-445;ΔFnII) (SEQ ID NO:6) are as follows: Tm (° C.)=72 (+/−0.1), ΔUH(Tm) (cal mol^−1)=160000(+/−5000), ΔUS(Tm) (cal mol^−1 K^−1)=434, ΔUCp (cal mol^−1 K^−1)=2400.

[2] = target: T2, full-length proMMP9(1-707) (SEQ ID NO:1), activation by catalytic MMP3 (Homo sapiens, UniProt P14780, R574P); experiment: proMMP9/MMP3 P126 Activation Assay; type: biochemical
T2 construct: made in house; host or cells: HEK293 (transient, secreted)
Experimental: proMMP9/MMP3 P126 Activation Assay
The reaction volume was 50 μL. […] Reactivity of residual MMP3 towards P-126 substrate was minimal under these conditions.

[3] = target: T3, proMMP9(67-444;ΔFnII) (SEQ ID NO:5) (Homo sapiens, UniProt P14780, DEL216-390); experiment: ThermoFluor binding assay with proMMP9(67-444;ΔFnII)
T3 construct: start methionine (N); made in house; host or cells: E. coli BL21(DE3) RIL
T3 sequence (P14780 with tags, fused parts or gaps DEL216-390): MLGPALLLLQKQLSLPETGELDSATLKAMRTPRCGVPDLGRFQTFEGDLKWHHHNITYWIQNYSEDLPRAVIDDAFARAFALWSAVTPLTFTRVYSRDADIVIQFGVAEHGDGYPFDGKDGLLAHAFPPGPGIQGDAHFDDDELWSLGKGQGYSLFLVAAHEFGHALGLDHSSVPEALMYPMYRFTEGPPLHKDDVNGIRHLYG
Experimental: as §1, §2, §3, §4
ThermoFluor® with proMMP9(67-444;ΔFnII (SEQ ID NO:5)
The protein sample preparations had to include a desalting buffer exchange step via a PD-10 gravity column (GE Healthcare). The desalting buffer exchange was performed prior to diluting the protein to the final assay concentration of 3.5 μM proMMP9(67-444;ΔFnII) (SEQ ID NO:5). The concentration of proMMP9(67-444;ΔFnII) (SEQ ID NO:5) was determined spectrophotometrically based on a calculated extinction coefficient of ε280=33900 M^−1 cm^−1, a calculated molecular weight of 22.6 kDa, and calculated pI of 5.20. ThermoFluor® reference conditions were defined as follows: 80 μg/mL (3.5 μM) proMMP9(67-444;ΔFnII) (SEQ ID NO:5), 50 μM 1,8-ANS, pH 7.0 Buffer (50 mM HEPES pH 7.0, 100 mM NaCl, 0.001% Tween-20, 2.5 mM MgCl2, 300 μM CaCl2). The thermodynamic parameters for proMMP9(67-444;ΔFnII) (SEQ ID NO:5) are as follows: Tm (° C.)=63 (+/−0.1), ΔUH(Tm) (cal mol^−1)=105000(+/−5000), ΔUS(Tm) (cal mol^−1 K^−1)=450, ΔuCp (cal mol^−1 K^−1)=2000.

T2 sequence (P14780 20-707 R574P): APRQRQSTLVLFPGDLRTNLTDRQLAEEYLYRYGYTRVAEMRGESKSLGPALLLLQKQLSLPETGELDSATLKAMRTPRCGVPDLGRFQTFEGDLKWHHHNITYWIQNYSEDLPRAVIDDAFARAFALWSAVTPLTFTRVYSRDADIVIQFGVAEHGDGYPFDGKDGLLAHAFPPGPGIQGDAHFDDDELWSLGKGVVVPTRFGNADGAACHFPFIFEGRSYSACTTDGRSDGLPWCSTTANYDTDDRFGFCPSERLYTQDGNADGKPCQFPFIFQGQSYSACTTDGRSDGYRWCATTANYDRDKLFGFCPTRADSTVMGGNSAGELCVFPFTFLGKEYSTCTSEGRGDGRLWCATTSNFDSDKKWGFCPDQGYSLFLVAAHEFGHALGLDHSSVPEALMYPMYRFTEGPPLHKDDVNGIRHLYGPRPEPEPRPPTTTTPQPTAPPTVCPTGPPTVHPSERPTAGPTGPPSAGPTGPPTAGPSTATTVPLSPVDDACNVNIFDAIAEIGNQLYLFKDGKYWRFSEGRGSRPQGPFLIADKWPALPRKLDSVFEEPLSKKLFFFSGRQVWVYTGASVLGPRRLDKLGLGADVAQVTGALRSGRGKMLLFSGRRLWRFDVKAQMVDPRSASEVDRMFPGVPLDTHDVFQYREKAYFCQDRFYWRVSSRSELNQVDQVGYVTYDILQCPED

Kd [1] [nM]	IC50 [2] [nM]	Kd [3] [nM]	SMILES
44	150	–	CC(C)Oc1ccc(S(N)(=O)=O)cc1Nc1nc(-c2ccc3[nH]c(N)nc3c2)cs1 [Example 34, 3-((4-(2-Amino-1H-benzo[d]imidazol-5-yl)thiazol-2-yl)amino)-4-isopropoxybenzenesulfonamide•TFA]
210	470	1000	CCCn1cnc2cc(-c3csc(Nc4cc(S(N)(=O)=O)ccc4OC(C)C)n3)ccc21 [Example 26]
360	180	1100	Cc1nc2cc(-c3csc(Nc4cc(S(N)(=O)=O)ccc4OC(C)C)n3)ccc2n1C [Example 23, 3-[4-(1,2-Dimethyl-1H-benzoimidazol-5-yl)-thiazol-2-ylamino]-4-isopropoxy-benzenesulfonamide•TFA]
170	240	480	Cc1nc2ccc(-c3csc(Nc4cc(S(N)(=O)=O)ccc4OC(C)C)n3)cc2n1C [Example 22, 3-[4-(2,3-Dimethyl-3H-benzoimidazol-5-yl)-thiazol-2-ylamino]-4-isopropoxy-benzenesulfonamide•TFA]
100	150	660	CC(C)Oc1ccc(S(N)(=O)=O)cc1Nc1nc(-c2ccc3c(c2)nc(CO)n3C)cs1 [Example 29]
82	170	–	CC(C)Oc1ccc(S(N)(=O)=O)cc1Nc1nc(-c2ccc3[nH]c(=O)[nH]c3c2)cs1 [Example 33]
52	73	–	CC(C)Oc1ccc(S(N)(=O)=O)cc1Nc1nc(-c2ccc3c(c2)nc(CN(C)C)n3C)cs1 [Example 31, 3-((4-(2-((Dimethylamino)methyl)-1-methyl-1H-benzo[d]imidazol-5-yl)thiazol-2-yl)amino)-4-isopropoxybenzenesulfonamide•TFA]
52	200	–	CC(C)Oc1ccc(S(N)(=O)=O)cc1Nc1nc(-c2ccc3c(c2)nc(CN(C)CCN(C)C)n3C)cs1 [Example 32, 3-((4-(2-(((2-(Dimethylamino)ethyl)(methyl)amino)methyl)-1-methyl-1H-benzo[d]imidazol-5-yl)thiazol-2-yl)amino)-4-isopropoxybenzenesulfonamide•TFA]
87	82	–	CC(C)Oc1ccc(S(N)(=O)=O)cc1Nc1nc(-c2ccc3c(c2)nc(CN2CCN(C)CC2)n3C)cs1 [Example 30]

The next lines start with the compound.

SMILES	Kd [1] [nM]	IC50 [2] [nM]	Kd [3] [nM]
CC(C)Oc1ccc(C(N)=O)cc1Nc1nc(-c2ccc3c(cnn3C)c2)cs1 [Example 14, 4-Isopropoxy-3-[4-(1-methyl-1H-indazol-5-yl)-thiazol-2-ylamino]-benzamide•TFA]	67	350	670
CCn1c(C)nc2cc(-c3csc(Nc4cc(S(N)(=O)=O)ccc4OC(C)C)n3)ccc21 [Example 17, 3-[4-(1-Ethyl-2-methyl-1H-benzoimidazol-5-yl)-thiazol-2-ylamino]-4-isopropoxy-benzenesulfonamide•HCl]	212	300	850
CC(C)Oc1ccc(S(N)(=O)=O)cc1Nc1nc(-c2ccc3c(c2)ncn3C)cs1 [Example 9, 4-Isopropoxy-3-[4-(1-methyl-1H-benzoimidazol-5-yl)-thiazol-2-ylamino]-benzenesulfonamide•HCl]	260	150	2000
COc1ccc(S(N)(=O)=O)cc1Nc1nc(-c2ccc3c(c2)ncn3C)cs1 [Example 11, 4-Methoxy-3-[4-(1-methyl-1H-benzoimidazol-5-yl)-thiazol-2-ylamino]-benzenesulfonamide]	4800	860	11000
CC(C)Oc1ccc(S(N)(=O)=O)cc1Nc1nc(-c2ccc3c(cnn3C)c2)cs1 [Example 15, 4-Isopropoxy-3-[4-(1-methyl-1H-indazol-5-yl)-thiazol-2-ylamino]-benzenesulfonamide•TFA]	110	550	280
COc1cc(C)c(C(N)=O)cc1Nc1nc(-c2ccc3c(c2)ncn3C)cs1 [Example 1, 4-Methoxy-2-methyl-5-[4-(1-methyl-1H-benzoimidazol-5-yl)-thiazol-2-ylamino]-benzamide]	1700	2300	7500
CC(C)Oc1ccc(S(N)(=O)=O)cc1Nc1nc(-c2ccc3sccc3c2)cs1 [Example 20, 3-(4-Benzo[b]thiophen-5-yl-thiazol-2-ylamino)-4-isopropoxy-benzenesulfonamide•TFA]	450	3600	1200
CCCn1cnc2ccc(-c3csc(Nc4cc(S(N)(=O)=O)ccc4OC(C)C)n3)cc21 [Example 19, 4-Isopropoxy-3-[4-(3-propyl-3H-benzoimidazol-5-yl)-thiazol-2-ylamino]-benzenesulfonamide•TFA]	170	460	830
Cn1cnc2cc(-c3csc(Nc4cc(S(N)(=O)=O)ccc4OC(F)(F)F)n3)ccc21 [Example 12, 3-[4-(1-Methyl-1H-benzoimidazol-5-yl)-thiazol-2-ylamino]-4-trifluoromethoxy-benzenesulfonamide]	750	860	5300
COc1ccc(C(N)=O)cc1Nc1nc(-c2ccc3c(c2)ncn3C)cs1 [Example 10, 4-Methoxy-3-[4-(1-methyl-1H-benzoimidazol-5-yl)-thiazol-2-ylamino]-benzamide]	320	850	990
CC(C)Cc1ccc(C(N)=O)cc1Nc1nc(-c2ccc3c(c2)ncn3C)cs1 [Example 2, 4-Isobutyl-3-[4-(1-methyl-1H-benzoimidazol-5-yl)-thiazol-2-ylamino]-benzamide•TFA]	690	~3000	6000
